Measurements: ChEMBL document CHEMBL5537206 (J Med Chem, 2024)
Active and inactive are the calls of the source. The rule behind the calls is not given here.

Legend:
[1] = test system: Osimertinib-resistant NCI-H1975 cell; experiment: Antiproliferative activity against human Osimertinib-resistant NCI-H1975 cell (AZDR) incubated for 72 hrs by MTT assay; format: functional, cell-based
MCF7 = experiment: Antiproliferative activity against human MCF7 cells incubated for 72 hrs by MTT assay; format: functional, cell-based; conditions: MCF7, 72 h
NCI-H1975 = experiment: Antiproliferative activity against human NCI-H1975 cells incubated for 72 hrs by MTT assay; format: functional, cell-based; conditions: NCI-H1975, 72 h
Mus musculus [2] = experiment: In vivo inhibition of EGFR L858R/T790M mutant in BALB/c nude mouse xenografted with human Osimertinib-resistant NCI-H1975 cell (AZDR) assessed as downregulation of EGFR phosphorylation at 10 mg/kg, po measured after 22 days; format: functional, organism-based; conditions: time 22.0 day
[3] = test system: Osimertinib-resistant NCI-H1975 cell; experiment: Anticancer activity against human Osimertinib-resistant NCI-H1975 cell (AZDR) xenografted in BALB/c nude mouse model assessed as increase in tumor cell apoptosis at 10 mg/kg, po by TUNEL assay; format: functional, organism-based
[4] = test system: Osimertinib-resistant NCI-H1975 cell; experiment: Induction of apoptosis in human Osimertinib-resistant NCI-H1975 cell (AZDR) assessed as early apoptotic cells at 1 uM incubated for 24 hrs by Annexin V and propidium iodide staining based flow cytometry analysis (reference value: 3.38%); format: functional
Mus musculus [5] = experiment: In vivo inhibition of EGFR L858R/T790M mutant in BALB/c nude mouse xenografted with human Osimertinib-resistant NCI-H1975 cell (AZDR) assessed as downregulation of AKT phosphorylation at 10 mg/kg, po measured after 22 days; format: functional, organism-based; conditions: time 22.0 day
[6] = test system: Osimertinib-resistant NCI-H1975 cell; experiment: Induction of apoptosis in human Osimertinib-resistant NCI-H1975 cell (AZDR) assessed as late apoptotic cells at 1 uM incubated for 24 hrs by Annexin V and propidium iodide staining based flow cytometry analysis (reference value: 1.06%); format: functional
[7] = test system: Osimertinib-resistant NCI-H1975 cell; experiment: Induction of apoptosis in human Osimertinib-resistant NCI-H1975 cell (AZDR) assessed as early apoptotic cells at 1 uM incubated for 24 hrs in presence of osimertinib by Annexin V and propidium iodide staining based flow cytometry analysis (reference value: 3.38%); format: functional
[8] = test system: Osimertinib-resistant NCI-H1975 cell; experiment: Anticancer activity against human Osimertinib-resistant NCI-H1975 cell (AZDR) xenografted in BALB/c nude mouse model assessed as increase tumor cell apoptosis at 10 mg/kg, po in presence of osimertinib by TUNEL assay; format: functional, organism-based
[9] = test system: Osimertinib-resistant NCI-H1975 cell; experiment: Induction of apoptosis in human Osimertinib-resistant NCI-H1975 cell (AZDR) assessed as late apoptotic cells at 1 uM incubated for 24 hrs in presence of osimertinib by Annexin V and propidium iodide staining based flow cytometry analysis (reference value: 1.06%); format: functional
Mus musculus [10] = experiment: In vivo inhibition of ACK1 in BALB/c nude mouse xenografted with human Osimertinib-resistant NCI-H1975 cell (AZDR) assessed as downregulation of ACK1 phosphorylation at 10 mg/kg, po measured after 22 days; format: functional, organism-based; conditions: time 22.0 day
[11] = test system: Osimertinib-resistant NCI-H1975 cell; experiment: Anticancer activity against human Osimertinib-resistant NCI-H1975 cell (AZDR) xenografted in BALB/c nude mouse model assessed as increase in tumor cell apoptosis at 10 mg/kg, po in presence of dasatinib by TUNEL assay; format: functional, organism-based
[12] = test system: Osimertinib-resistant NCI-H1975 cell; experiment: Induction of apoptosis in human Osimertinib-resistant NCI-H1975 cell (AZDR) assessed as early apoptotic cells at 1 uM incubated for 24 hrs in presence of dasatinib by Annexin V and propidium iodide staining based flow cytometry analysis (reference value: 3.38%); format: functional
[13] = test system: Osimertinib-resistant NCI-H1975 cell; experiment: Induction of apoptosis in human Osimertinib-resistant NCI-H1975 cell (AZDR) assessed as late apoptotic cells at 1 uM incubated for 24 hrs in presence of dasatinib by Annexin V and propidium iodide staining based flow cytometry analysis (reference value: 1.06%); format: functional

Compound	IC50 [1]	IC50 (MCF7)	IC50 (NCI-H1975)	further results
C=CC(=O)Nc1cccc(Nc2nc(Nc3c(C)nn(C)c3C)nc3ccc(Cl)cc23)c1	1.62 µM	4.4 µM	2.89 µM	–
C=CC(=O)Nc1cccc(Nc2nc(NCCn3cccn3)nc3ccc(Cl)cc23)c1	22.8 µM	13.7 µM	10.1 µM	–
C=CC(=O)Nc1cccc(Nc2nc(Nc3cnn(CC(F)(F)F)c3)nc3ccc(Cl)cc23)c1	3.55 µM	6.83 µM	2.15 µM	–
C=CC(=O)Nc1cccc(Nc2nc(Nc3cnn(C)c3)nc3ccc(I)cc23)c1	0.98 µM	1.84 µM	0.75 µM	–
C=CC(=O)Nc1cccc(Nc2nc(Nc3cnn(-c4ccccc4)c3)nc3ccc(Cl)cc23)c1	8.13 µM	15.2 µM	10.1 µM	–
C=CC(=O)Nc1cccc(Nc2nc(Nc3cnn(C)c3)nc3c(Cl)cccc23)c1	> 20 µM	1.72 µM	2.21 µM	–
C=CC(=O)Nc1cccc(Nc2nc(Nc3ccc(N(C)CCN(C)C)cc3)nc3ccc(Cl)cc23)c1	1.89 µM	2.53 µM	1.24 µM	–
C=CC(=O)Nc1cccc(Nc2nc(Nc3cn(CC)nc3C)nc3ccc(Cl)cc23)c1	2.14 µM	10.8 µM	> 20 µM	–
C=CC(=O)Nc1cccc(Nc2nc(Nc3cnn(C)c3)nc3ccc(Br)cc23)c1	2.35 µM	1.64 µM	1.1 µM	–
C=CC(=O)Nc1ccc(Nc2nc(Nc3cnn(C)c3)nc3ccc(Cl)cc23)cc1	7.35 µM	3.58 µM	7.58 µM	–
C=CC(=O)Nc1cccc(Nc2nc(Nc3cn(C)nc3C(F)(F)F)nc3ccc(Cl)cc23)c1	3.36 µM	5.72 µM	1.02 µM	–
C=CC(=O)Nc1cccc(Nc2nc(Nc3cn[nH]c3)nc3ccc(Cl)cc23)c1	4.68 µM	5.37 µM	2.56 µM	–
C=CC(=O)Nc1cccc(Nc2nc(Nc3cnn(C)c3)nc3cc(F)ccc23)c1	17.7 µM	11.1 µM	1.28 µM	–
C=CC(=O)Nc1cccc(Nc2nc(Nc3cnn(C)c3)nc3cccc(Cl)c23)c1	2.44 µM	1.85 µM	0.81 µM	–
Cc1nc(Nc2ncc(C(=O)Nc3c(C)cccc3Cl)s2)cc(N2CCN(CCO)CC2)n1 [DASATINIB ANHYDROUS]	–	–	–	inhibition (Mus musculus [2]): Active; Activity [3]: inactive; Activity [4]: 10.2%; inhibition (Mus musculus [5]): inactive; Activity [6]: 7.4%; Activity [7]: 19.6%; Activity [8]: Active; Activity [9]: 20.6%; inhibition (Mus musculus [10]): Active
C=CC(=O)Nc1cc(Nc2nccc(-c3cn(C)c4ccccc34)n2)c(OC)cc1N(C)CCN(C)C [OSIMERTINIB]	4 µM	1.16 µM	0.015 µM	inhibition (Mus musculus [2]): Active; Activity [3]: inactive; Activity [11]: Active; Activity [4]: 2.86%; Activity [12]: 19.6%; inhibition (Mus musculus [5]): inactive; Activity [6]: 1.22%; Activity [13]: 20.6%; inhibition (Mus musculus [10]): Active
C=CC(=O)Nc1cccc(Nc2nc(Nc3cnn(C)c3)nc3ccc(OC)cc23)c1	4.64 µM	2.2 µM	1.52 µM	–
C=CC(=O)Nc1cccc(Nc2nc(Nc3cccc(C)c3)nc3ccc(Cl)cc23)c1	4.77 µM	7.73 µM	2.68 µM	–
C=CC(=O)Nc1cccc(Nc2nc(Nc3cnn(C)c3)nc3ccc(C)cc23)c1	2.51 µM	1.24 µM	1.86 µM	–
C=CC(=O)Nc1cccc(Nc2nc(Nc3cnn(Cc4ccccc4)c3)nc3ccc(Cl)cc23)c1	3.83 µM	1.3 µM	3.98 µM	–
C=CC(=O)Nc1cccc(Nc2nc(Nc3cc(C(F)(F)F)n(C)n3)nc3ccc(Cl)cc23)c1	3.45 µM	10 µM	2.36 µM	–
C=CC(=O)Nc1cccc(Nc2nc(Nc3ccn(C)n3)nc3ccc(Cl)cc23)c1	3.55 µM	12.4 µM	1.37 µM	–
C=CC(=O)Nc1cccc(Nc2nc(Nc3cnn(C)c3)nc3ccccc23)c1	2.81 µM	4.6 µM	0.94 µM	–

Compound	IC50 [1]	IC50 (MCF7)	IC50 (NCI-H1975)	further results
C=CC(=O)Nc1cccc(Nc2nc(Nc3cnn(C)c3)nc3cc(OC)ccc23)c1	2.5 µM	1.34 µM	1.38 µM	–
C=CC(=O)Nc1cccc(Nc2nc(Nc3cnn(C)c3)nc3c(F)cccc23)c1	3.34 µM	3.74 µM	2.11 µM	–
C=CC(=O)Nc1cccc(Nc2nc(Nc3cnn(C)c3C)nc3ccc(Cl)cc23)c1	3.4 µM	3.24 µM	1.02 µM	–
C=CC(=O)Nc1cccc(Nc2nc(Nc3cnn(C4CCN(C)CC4)c3)nc3ccc(Cl)cc23)c1	4.53 µM	5.26 µM	2.35 µM	–
C=CC(=O)Nc1cccc(Nc2nc(Nc3cnn(C)c3)nc3cc(Cl)ccc23)c1	13.8 µM	2.95 µM	15 µM	–
C=CC(=O)Nc1cccc(Nc2nc(Nc3cnn(C)c3)nc3cc(C(F)(F)F)ccc23)c1	2.62 µM	1.16 µM	1.3 µM	–
C=CC(=O)Nc1cccc(Nc2nc(Nc3cnn(CCN4CCOCC4)c3)nc3ccc(Cl)cc23)c1	3.45 µM	8.78 µM	1.7 µM	–
C=CC(=O)Nc1cccc(Nc2nc(Nc3cnn(C)c3)nc3cc(C)ccc23)c1	3.34 µM	0.52 µM	1.59 µM	–
C=CC(=O)Nc1ccccc1Nc1nc(Nc2cnn(C)c2)nc2ccc(Cl)cc12	6.53 µM	4.26 µM	5.63 µM	–
C=CC(=O)Nc1cccc(Nc2nc(Nc3ccccc3C)nc3ccc(Cl)cc23)c1	7.31 µM	8.26 µM	6.58 µM	–
CCC(=O)Nc1cccc(Nc2nc(Nc3cnn(C)c3)nc3ccc(Cl)cc23)c1	9.58 µM	4.68 µM	6.35 µM	–
C=CC(=O)Nc1cccc(Nc2nc(Nc3ccc(C)cc3)nc3ccc(Cl)cc23)c1	6.56 µM	4.24 µM	2.29 µM	–
C=CC(=O)Nc1cccc(Nc2nc(Nc3cnn(C)c3)nc3ccc(Cl)cc23)c1	1.04 µM	1.23 µM	0.95 µM	–
C=CC(=O)Nc1cccc(Nc2nc(Nc3ccc(-n4cccn4)cc3)nc3ccc(Cl)cc23)c1	5.84 µM	4.78 µM	1.51 µM	–
C=CC(=O)Nc1cccc(Nc2nc(Nc3cnn(C)c3)nc3cccc(F)c23)c1	3.44 µM	9.16 µM	1.06 µM	–
C=CC(=O)Nc1cccc(Nc2nc(Nc3cccc(Br)c3)nc3ccc(Cl)cc23)c1	2.8 µM	3.58 µM	2.94 µM	–
C=CC(=O)Nc1cccc(Nc2nc(Nc3cn(C)nc3C)nc3ccc(Cl)cc23)c1	> 20 µM	15 µM	4.05 µM	–
C=CC(=O)Nc1cccc(Nc2nc(Nc3cnn(CCOC)c3)nc3ccc(Cl)cc23)c1	3.71 µM	6.56 µM	3.18 µM	–
C=CC(=O)Nc1cccc(Nc2nc(Nc3cnn(C)c3)nc3ccc(C(F)(F)F)cc23)c1	2.75 µM	18.2 µM	1.56 µM	–
C=CC(=O)Nc1cccc(Nc2nc(Nc3ccnn3C)nc3ccc(Cl)cc23)c1	9.47 µM	6.89 µM	4.25 µM	–
C=CC(=O)Nc1cccc(Nc2nc(Nc3cnn(C)c3)nc3ccc(F)cc23)c1	1.52 µM	2.36 µM	8.76 µM	–
C=CC(=O)Nc1cccc(Nc2nc(Nc3cnn(C4CCOCC4)c3)nc3ccc(Cl)cc23)c1	3.72 µM	2.91 µM	1.4 µM	–
C=CC(=O)Nc1cccc(Nc2nc(Nc3cnn(C(C)(C)C)c3)nc3ccc(Cl)cc23)c1	3.94 µM	5.64 µM	2.1 µM	–
